From PubChem BioAssay AID2060495 (Molecular Pharmacology Branch, DTP, NCI, 2025)
pIC50: −log10 of the molar value.

Tested on: 521955-158-R2-J5-PDC complex spheroid viability
Assay: Anticancer human tumor 521955-158-R2-J5-PDC patient-derived pancreatic carcinoma cell line growth inhibition [GQUAD]
Conditions: for pIC50: curve of first compound; for viability, T/C: stronger effect = lower value; active = viability on the fitted dose curve at most 10% of control; inactive = the rest
In short: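 Multi-cell-type spheroids of tumor cells with HUVEC and mesenchymal stem cells, treated with drug combinations. Concentrations descend in half-log steps from near clinical Cmax, or from 10 microM where Cmax is unknown; viability read-out.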

[1] = second compound 0.0316 µM, first compound 0.0316 µM
[2] = second compound 0.0316 µM, first compound 0.1 µM
[3] = second compound 0.0316 µM, first compound 0.316 µM
[4] = second compound 0.0316 µM, first compound 1 µM
[5] = second compound 0.0316 µM, first compound 3.16 µM
[6] = second compound 0.0316 µM, first compound 10 µM
[7] = second compound 0.1 µM, first compound 0.0316 µM
[8] = second compound 0.1 µM, first compound 0.1 µM
[9] = second compound 0.1 µM, first compound 0.316 µM
[10] = second compound 0.1 µM, first compound 1 µM
[11] = second compound 0.1 µM, first compound 3.16 µM
[12] = second compound 0.1 µM, first compound 10 µM
[13] = second compound 0.316 µM, first compound 0.0316 µM
[14] = second compound 0.316 µM, first compound 0.1 µM
[15] = second compound 0.316 µM, first compound 0.316 µM
[16] = second compound 0.316 µM, first compound 1 µM
[17] = second compound 0.316 µM, first compound 3.16 µM
[18] = second compound 0.316 µM, first compound 10 µM
[19] = second compound 1 µM, first compound 0.0316 µM
[20] = second compound 1 µM, first compound 0.1 µM
[21] = second compound 1 µM, first compound 0.316 µM
[22] = second compound 1 µM, first compound 1 µM
[23] = second compound 1 µM, first compound 3.16 µM
[24] = second compound 1 µM, first compound 10 µM
[25] = second compound 3.16 µM, first compound 0.0316 µM
[26] = second compound 3.16 µM, first compound 0.1 µM
[27] = second compound 3.16 µM, first compound 0.316 µM
[28] = second compound 3.16 µM, first compound 1 µM
[29] = second compound 3.16 µM, first compound 3.16 µM
[30] = second compound 3.16 µM, first compound 10 µM
[31] = second compound 10 µM, first compound 0.0316 µM
[32] = second compound 10 µM, first compound 0.1 µM
[33] = second compound 10 µM, first compound 0.316 µM
[34] = second compound 10 µM, first compound 1 µM
[35] = second compound 10 µM, first compound 3.16 µM
[36] = second compound 10 µM, first compound 10 µM
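Also: spheroids exposed to agents for one week before reading.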
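For viability, T/C in this document: 100% = DMSO vehicle control viability.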

COc1cc(C2c3cc4c(cc3C(OC3OC5COC(C)OC5C(O)C3O)C3COC(=O)C23)OCO4)cc(OC)c1O (centres undefined) + Cc1cnc(CNC(=O)c2c(=O)c3ccc(N4CCCN(C)CC4)nc3n3c2sc2ccccc23)cn1
> 7.50: pIC50 (second compound 0.316 µM) | pIC50 (second compound 1 µM) | pIC50 (second compound 3.16 µM) | pIC50 (second compound 10 µM)
active: viability, T/C [6] 9.69% | viability, T/C [24] 10.2% | viability, T/C [30] 8.61%
inactive: viability, T/C [1] 84.4% | viability, T/C [2] 70.8% | viability, T/C [3] 42.8% | viability, T/C [4] 23.2% | viability, T/C [5] 12.1% | viability, T/C [7] 59.2% | viability, T/C [8] 55.3% | viability, T/C [9] 49.3% | viability, T/C [10] 37.8% | viability, T/C [11] 16% | viability, T/C [12] 11% | viability, T/C [13] 45.2% | viability, T/C [14] 42.2% | viability, T/C [15] 36.5% | viability, T/C [16] 19.8% | viability, T/C [17] 14% | viability, T/C [18] 12.1% | viability, T/C [19] 23.2% | viability, T/C [20] 28.4% | viability, T/C [21] 19.2% | viability, T/C [22] 17.4% | viability, T/C [23] 10.3% | viability, T/C [25] 19.2% | viability, T/C [26] 18% | viability, T/C [27] 19.6% | viability, T/C [28] 17% | viability, T/C [29] 6.27% | viability, T/C [31] 15.6% | viability, T/C [32] 17.8% | viability, T/C [33] 18.8% | viability, T/C [34] 16.7% | viability, T/C [35] 10.2% | viability, T/C [36] 8.93%
6.62: pIC50 (second compound 0.0316 µM)
6.47: pIC50 (second compound 0.1 µM)

CC1COCCN1c1cc(C2(O)CC3CCC(C2)O3)c2cnn(-c3ccn[nH]3)c2n1 (centres undefined) + Cc1cnc(CNC(=O)c2c(=O)c3ccc(N4CCCN(C)CC4)nc3n3c2sc2ccccc23)cn1
active: viability, T/C [23] 10.5% | viability, T/C [24] 4.62% | viability, T/C [28] 9.81% | viability, T/C [29] 6.85% | viability, T/C [30] 0.99% | viability, T/C [34] 8.67% | viability, T/C [35] 6.98% | viability, T/C [36] 0.78%
inactive: viability, T/C [1] 23.8% | viability, T/C [2] 11.8% | viability, T/C [3] 15.9% | viability, T/C [4] 13.4% | viability, T/C [5] 18.2% | viability, T/C [6] 8.84% | viability, T/C [7] 23.1% | viability, T/C [8] 13% | viability, T/C [9] 11.2% | viability, T/C [10] 13.4% | viability, T/C [11] 15.3% | viability, T/C [12] 8.46% | viability, T/C [13] 23.8% | viability, T/C [14] 14.9% | viability, T/C [15] 12.8% | viability, T/C [16] 14.5% | viability, T/C [17] 15.3% | viability, T/C [18] 5.38% | viability, T/C [19] 18.4% | viability, T/C [20] 13.7% | viability, T/C [21] 11.1% | viability, T/C [22] 12.1% | viability, T/C [25] 14.2% | viability, T/C [26] 13.5% | viability, T/C [27] 10.7% | viability, T/C [31] 14.2% | viability, T/C [32] 13.7% | viability, T/C [33] 10.6%
> 7.50: pIC50 (second compound 0.0316 µM) | pIC50 (second compound 0.1 µM) | pIC50 (second compound 0.316 µM) | pIC50 (second compound 1 µM) | pIC50 (second compound 3.16 µM) | pIC50 (second compound 10 µM)
